Literature values in patent publication US20240366648A1, “NAD-AUGMENTATION THERAPY FOR PARKINSON'S DISEASE” (Vestlandets Innovasjonsselskap AS (VIS), priority 2021, published 2024).

Assays:
[1] = test system: PD patients; conditions: cited from earlier work
[2] = target: T1, a-synuclein (Homo sapiens, UniProt P37840); conditions: in vivo; cited from earlier work
T1 construct: host or cells: PD patients in a clinical trial (endogenous protein)

C#CCN(C)[C@H](C)Cc1ccccc1 [L-Deprenyl, selegiline]
decrease of motor decline compared to tocopherol [1]: 50%

B1: cinpanemab: a-synuclein antibody drug (antibody, chains of the INN, looked up, V domains shown)
VH: EVQLVESGGGLVEPGGSLRLSCAVSGFDFEKAWMSWVRQAPGQGLQWVARIKSTADGGTTSYAAPVEGRFIISRDDSRNMLYLQMNSLKTEDTAVYYCTSAHWGQGTLVTVSS
VL: SYELTQPPSVSVSPGQTARITCSGEALPMQFAHWYQQRPGKAPVIVVYKDSERPSGVPERFSGSSSGTTATLTITGVQAEDEADYYCQSPDSTNTYEVFGGGTKLTVL
clinical trial outcome in PD [2]: did not achieve proof-of-concept and missed its primary and secondary endpoints
